# Measured values as given in patent publication US9510592B2, “Pesticidal compositions and processes related thereto” (Dow AgroSciences LLC, priority 2012, dated 2016).
# Tested on: Beet Armyworm (Spodoptera exigua)
# Test: Bioassay on Beet Armyworm (BAW), 128-well diet tray assay
# Assay type: in vivo
# Settings: percent mortality of second instar larvae, 50 μg/cm^2 on artificial diet, five to seven days, 25° C.; Table 3
# Method: Certain molecules disclosed in this document were tested against BAW and CEW and CL using procedures described in the following examples. In the reporting of the results, the “BAW & CEW & CL Rating Table” was used (See Table Section).
# Bioassays on BAW (Spodoptera exigua)
# Bioassays on BAW were conducted using a 128-well diet tray assay. one to five second instar BAW larvae were placed in each well (3 mL) of the diet tray that had been previously filled with 1 mL of artificial diet to which 50 μg/cm^2 of the test compound (dissolved in 50 μL of 90:10 acetone-water mixture) had been applied (to each of eight wells) and then allowed to dry. Trays were covered with a clear self-adhesive cover, and held at 25° C., 14:10 light-dark for five to seven days. Percent mortality was recorded for the larvae in each well; activity in the eight wells was then averaged. The results are indicated in the table entitled “Table 3: Assay Results” (See Table Section).
row,SMILES,BAW Rating
1,O=C(CNC(=O)c1ccc(/C=C/C(c2cc(Cl)c(Cl)c(Cl)c2)C(F)(F)F)cc1Br)NCC(F)(F)F (stereo not shown) [AC66],A (50-100)
2,N#Cc1cc(/C=C\C(c2cc(Cl)c(F)c(Cl)c2)C(F)(F)F)ccc1-n1cncn1 (stereo not shown) [DC46],A (50-100)
3,O=C(Cc1ccc(Cl)nc1)NCc1ccc(/C=C/C(c2cc(Cl)c(Cl)c(Cl)c2)C(F)(F)F)cc1Cl (stereo not shown) [CC14],A (50-100)
4,"CCNC(=S)NCc1ccc(/C=C/C(c2cc(Cl)c(Cl)c(Cl)c2)C(F)(F)F)cc1Cl (stereo not shown) [CC37, (E)-1-(2-Chloro-4-(4,4,4-trifluoro-3-(3,4,5-trichlorophenyl)but-1-en-1-yl)benzyl)-3-ethylthiourea]",A (50-100)
5,Cc1cc(/C=C/C(c2cc(Cl)cc(Cl)c2)C(F)(F)F)ccc1-n1cncn1 (stereo not shown) [DC62],A (50-100)
6,"FC(F)(F)C(/C=C/c1ccc(CNc2ccccn2)c(Cl)c1)c1cc(Cl)c(Cl)c(Cl)c1 (stereo not shown) [CC43, (E)-N-(2-Chloro-4-(4,4,4-trifluoro-3-(3,4,5-trichlorophenyl)but-1-en-1-yl)benzyl)pyridin-2-amine]",A (50-100)
7,"CNc1cc(/C=C/C(c2cc(Cl)cc(Cl)c2)C(F)(F)F)ccc1-n1cncn1 (stereo not shown) [DC57, (E)-5-(3-(3,5-Dichlorophenyl)-4,4,4-trifluorobut-1-en-1-yl)-N-methyl-2-(1H-1,2,4-triazol-1-yl)aniline]",A (50-100)
8,Cc1cc(/C=C/C(c2cc(Cl)c(F)c(Cl)c2)C(F)(F)F)ccc1C(=O)NCC(=O)NCC(F)(F)F (stereo not shown) [AC69],A (50-100)
9,O=C(NC1CSC1)c1ccc(/C=C/C(c2cc(Cl)c(Cl)c(Cl)c2)C(F)(F)F)cc1Br (stereo not shown) [AC32],A (50-100)
10,"O=C(C1CC1)N(Cc1ccccn1)Cc1ccc(/C=C/C(c2cc(Cl)c(Cl)c(Cl)c2)C(F)(F)F)cc1C(F)(F)F (stereo not shown) [CC29, (E)-N-(Pyridin-2-ylmethyl)-N-(4-(4,4,4-trifluoro-3-(3,4,5-trichlorophenyl)but-1-enyl)-2-(trifluoromethyl)benzyl)cyclopropanecarboxamide]",A (50-100)
11,O=C(NCc1ccc(/C=C/C(c2cc(Cl)c(Cl)c(Cl)c2)C(F)(F)F)cc1C(F)(F)F)C1CC1 (stereo not shown) [CC22],A (50-100)
12,FC(F)(F)C(/C=C/c1ccc(-n2cncn2)c(Cl)c1)c1cc(Cl)cc(Cl)c1 (stereo not shown) [DC50],A (50-100)
13,"C/C(=C\C(c1cc(Cl)cc(Cl)c1)C(F)(F)F)c1ccc(-n2cncn2)cc1 (stereo not shown) [DC68, (E)-1-(4-(4-(3,5-Dichlorophenyl)-5,5,5-trifluoropent-2-en-2-yl)phenyl)-1H-1,2,4-triazole]",A (50-100)
14,CC(C)(C)OC(=O)CNC(=O)c1ccc(/C=C/C(c2cc(Cl)c(Cl)c(Cl)c2)C(F)(F)F)cc1Br (stereo not shown) [AC58],A (50-100)
15,O=C(NCc1ccc(/C=C/C(c2cc(Cl)cc(Cl)c2)C(F)(F)F)cc1Cl)C1CC1 (stereo not shown) [CC8],A (50-100)
16,O=C(NCc1ccc(Cl)nc1)c1ccc(/C=C/C(c2cc(Cl)c(F)c(Cl)c2)C(F)(F)F)cc1Br (stereo not shown) [AC63],A (50-100)
17,"O=C(CC(F)(F)F)NCc1ccc(/C=C\C(c2cc(Cl)c(Cl)c(Cl)c2)C(F)(F)F)cc1 (stereo not shown) [CC54, (Z)-3,3,3-Trifluoro-N-(4-(4,4,4-trifluoro-3-(3,4,5-trichlorophenyl)but-1-en-1-yl)benzyl)propanamide]",A (50-100)
18,Cc1cc(/C=C/C(c2cc(Cl)c(Cl)c(Cl)c2)C(F)(F)F)ccc1C(=O)NCc1ccc(Cl)nc1 (stereo not shown) [AC22],A (50-100)
19,CCC(=O)NCc1ccc(/C=C/C(c2cc(Cl)cc(Cl)c2)C(F)(F)F)cc1 (stereo not shown) [CC4],A (50-100)
